Source: ChEMBL document CHEMBL1144685, “Naphthamides as novel and potent vascular endothelial growth factor receptor tyrosine kinase inhibitors: design, synthesis, and evaluation” (J Med Chem, 2008)
The source made the active and inactive calls. The rule behind the calls is not given here.

Assays:
[1] = tested on: HUVEC; experiment: cells; settings: Homo sapiens
Description: Inhibition of VEGF-induced proliferation of HUVEC cells

[2] = tested on: HUVEC; experiment: cells; settings: Homo sapiens; remark: listed apart in the source
Description: Inhibition of bFGF-induced proliferation of HUVEC cells

[3] = molecular target: Vascular endothelial growth factor receptor 2 (Homo sapiens, UniProt P35968)
Sequence of Vascular endothelial growth factor receptor 2 (P35968 whole entry): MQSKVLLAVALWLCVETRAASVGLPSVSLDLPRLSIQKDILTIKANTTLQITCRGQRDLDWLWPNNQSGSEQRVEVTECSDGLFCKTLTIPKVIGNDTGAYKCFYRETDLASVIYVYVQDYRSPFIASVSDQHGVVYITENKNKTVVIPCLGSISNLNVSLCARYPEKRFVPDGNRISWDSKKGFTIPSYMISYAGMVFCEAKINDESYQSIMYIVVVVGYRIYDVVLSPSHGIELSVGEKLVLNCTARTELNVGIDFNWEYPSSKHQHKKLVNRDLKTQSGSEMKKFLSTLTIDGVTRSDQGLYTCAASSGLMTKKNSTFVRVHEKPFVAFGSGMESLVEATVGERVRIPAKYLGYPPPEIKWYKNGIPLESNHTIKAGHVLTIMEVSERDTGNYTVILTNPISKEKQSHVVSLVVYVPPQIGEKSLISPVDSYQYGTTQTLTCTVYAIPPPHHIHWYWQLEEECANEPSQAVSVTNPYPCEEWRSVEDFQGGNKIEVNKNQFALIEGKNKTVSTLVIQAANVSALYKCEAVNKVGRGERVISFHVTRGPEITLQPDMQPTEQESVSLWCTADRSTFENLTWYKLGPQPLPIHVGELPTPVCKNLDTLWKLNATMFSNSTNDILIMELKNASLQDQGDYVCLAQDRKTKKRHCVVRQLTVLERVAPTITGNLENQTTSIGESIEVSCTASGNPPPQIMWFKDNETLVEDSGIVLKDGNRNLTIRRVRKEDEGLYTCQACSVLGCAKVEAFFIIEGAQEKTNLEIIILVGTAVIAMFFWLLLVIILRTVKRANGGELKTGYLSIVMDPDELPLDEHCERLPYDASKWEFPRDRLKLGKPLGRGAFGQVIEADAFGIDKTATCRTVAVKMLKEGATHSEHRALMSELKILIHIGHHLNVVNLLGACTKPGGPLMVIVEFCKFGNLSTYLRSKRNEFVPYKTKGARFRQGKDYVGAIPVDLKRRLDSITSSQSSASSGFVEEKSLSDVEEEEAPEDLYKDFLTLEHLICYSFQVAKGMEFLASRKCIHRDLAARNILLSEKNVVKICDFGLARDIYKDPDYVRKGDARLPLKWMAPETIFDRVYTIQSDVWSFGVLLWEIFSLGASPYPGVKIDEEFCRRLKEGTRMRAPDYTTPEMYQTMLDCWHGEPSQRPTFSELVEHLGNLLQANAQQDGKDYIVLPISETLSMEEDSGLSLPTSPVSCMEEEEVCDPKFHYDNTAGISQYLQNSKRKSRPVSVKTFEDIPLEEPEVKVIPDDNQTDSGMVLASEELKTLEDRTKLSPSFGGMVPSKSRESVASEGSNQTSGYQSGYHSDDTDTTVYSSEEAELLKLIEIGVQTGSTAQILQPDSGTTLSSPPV
Description: Inhibition of KDR by HTRF assay

[4] = Half life in Sprague-Dawley rat at 0.25 mg/kg, iv; assay type: ADME, organism-based; set-up: dose 0.25 mg/kg, route intravenous; settings: in vivo
[5] = AUC (0 to 24 hrs) in Sprague-Dawley rat at 2 mg/kg; assay type: ADME, organism-based; set-up: time < 24 hr, dose 2 mg/kg; settings: plasma
[6] = Intrinsic clearance in human liver microsomes; assay type: ADME, Microsome
[7] = Oral bioavailability in Sprague-Dawley rat at 2 mg/kg; assay type: ADME, organism-based; settings: in vivo
[8] = Clearance in Sprague-Dawley rat at 0.25 mg/kg, iv; assay type: ADME, organism-based; set-up: dose 0.25 mg/kg, route intravenous; settings: in vivo
[9] = Volume of distribution at steady state in Sprague-Dawley rat at 0.25 mg/kg, iv; assay type: ADME, organism-based; set-up: dose 0.25 mg/kg, route intravenous; settings: in vivo, read-out: Vdss
[10] = molecular target: Cytochrome P450 3A4 (Homo sapiens, UniProt P08684)
Sequence of Cytochrome P450 3A4 (P08684 whole entry): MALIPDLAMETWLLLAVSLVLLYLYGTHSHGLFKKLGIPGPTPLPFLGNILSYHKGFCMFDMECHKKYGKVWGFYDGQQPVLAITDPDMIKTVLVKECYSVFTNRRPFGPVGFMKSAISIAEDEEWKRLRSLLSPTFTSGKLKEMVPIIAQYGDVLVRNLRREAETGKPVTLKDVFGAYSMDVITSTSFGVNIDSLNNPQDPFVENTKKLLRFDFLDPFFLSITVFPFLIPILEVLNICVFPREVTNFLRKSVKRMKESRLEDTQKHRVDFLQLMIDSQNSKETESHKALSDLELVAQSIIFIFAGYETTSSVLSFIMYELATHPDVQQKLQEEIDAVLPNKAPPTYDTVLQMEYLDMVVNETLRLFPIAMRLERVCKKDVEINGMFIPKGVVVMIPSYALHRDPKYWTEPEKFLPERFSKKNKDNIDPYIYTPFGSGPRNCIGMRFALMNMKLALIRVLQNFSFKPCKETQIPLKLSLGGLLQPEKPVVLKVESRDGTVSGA

[11] = Mean retention time in Sprague-Dawley rat at 0.25 mg/kg, iv; assay type: ADME, organism-based; set-up: dose 0.25 mg/kg, route intravenous; settings: in vivo
[12] = Cmax in Sprague-Dawley rat at 2 mg/kg; assay type: ADME, organism-based; set-up: dose 2 mg/kg; settings: in vivo
[13] = molecular target: Cytochrome P450 2D6 (Homo sapiens, UniProt P10635)
Sequence of Cytochrome P450 2D6 (P10635 whole entry): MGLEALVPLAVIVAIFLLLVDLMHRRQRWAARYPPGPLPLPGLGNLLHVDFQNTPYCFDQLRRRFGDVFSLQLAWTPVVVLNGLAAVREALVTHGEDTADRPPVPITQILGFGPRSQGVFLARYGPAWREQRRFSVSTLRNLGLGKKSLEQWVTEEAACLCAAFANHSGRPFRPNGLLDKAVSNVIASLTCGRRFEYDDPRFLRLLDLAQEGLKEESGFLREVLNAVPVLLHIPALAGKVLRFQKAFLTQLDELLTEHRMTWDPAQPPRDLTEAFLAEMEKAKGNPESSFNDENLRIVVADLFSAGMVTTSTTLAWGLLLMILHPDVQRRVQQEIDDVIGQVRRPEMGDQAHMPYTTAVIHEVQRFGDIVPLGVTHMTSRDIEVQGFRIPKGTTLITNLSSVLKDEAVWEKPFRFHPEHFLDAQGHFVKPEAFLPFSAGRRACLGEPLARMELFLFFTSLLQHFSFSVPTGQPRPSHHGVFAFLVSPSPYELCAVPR

[14] = Intrinsic clearance in rat liver microsomes; assay type: ADME, Microsome
[15] = tested on: HT-29; experiment: Antitumor activity against human HT29 cell xenografted CD1 nu/nu mouse assessed as inhibition of tumor growth at 10 mg/kg, po after 7 days; assay type: functional, organism-based; set-up: dose 10 mg/kg
[16] = tested on: HT-29; experiment: Antitumor activity against human HT29 cell xenografted CD1 nu/nu mouse assessed as inhibition of tumor growth at 30 mg/kg, po after 10 days; assay type: functional, organism-based; set-up: dose 30 mg/kg
[17] = tested on: Mus musculus; experiment: Inhibition of vascular permeability in HEK293 cells over expressing recombinant mouse VEGF implanted CD1 nu/nu mouse at 30 mg/kg, po by Matrigel plug assay; assay type: functional, organism-based; set-up: dose 30 mg/kg
[18] = organism: Mus musculus; experiment: Inhibition of mouse KDR phosphorylation in BALB/c mouse lung assessed as phosphorylated Flk1 level by Delphia assay; assay type: functional, organism-based
[19] = tested on: Mus musculus; experiment: Inhibition of vascular permeability in HEK293 cells over expressing recombinant mouse VEGF implanted CD1 nu/nu mouse at 100 mg/kg, po by Matrigel plug assay; assay type: functional, organism-based; set-up: dose 100 mg/kg
[20] = Clearance in Sprague-Dawley rat at 1 mg/kg, iv; assay type: ADME, organism-based; set-up: dose 1 mg/kg, route intravenous; settings: in vivo
[21] = AUC (0 to 24 hrs) in Sprague-Dawley rat at 2 mg/kg, po; assay type: ADME, organism-based; set-up: time < 24 hr, dose 2 mg/kg, route oral; settings: plasma
[22] = Mean retention time in Sprague-Dawley rat at 1 mg/kg, iv; assay type: ADME, organism-based; set-up: dose 1 mg/kg, route intravenous; settings: in vivo
[23] = Half life in Sprague-Dawley rat at 1 mg/kg, iv; assay type: ADME, organism-based; set-up: dose 1 mg/kg, route intravenous; settings: in vivo
[24] = Cmax in Sprague-Dawley rat at 2 mg/kg, po; assay type: ADME, organism-based; set-up: dose 2 mg/kg, route oral; settings: in vivo
[25] = Volume of distribution at steady state in Sprague-Dawley rat at 1 mg/kg, iv; assay type: ADME, organism-based; set-up: dose 1 mg/kg, route intravenous; settings: in vivo, read-out: Vdss
[26] = Volume of distribution at steady state in Sprague-Dawley rat at 0.5 mg/kg, iv; assay type: ADME, organism-based; set-up: dose 0.5 mg/kg, route intravenous; settings: in vivo, read-out: Vdss
[27] = Mean retention time in Sprague-Dawley rat at 0.5 mg/kg, iv; assay type: ADME, organism-based; set-up: dose 0.5 mg/kg, route intravenous; settings: in vivo
[28] = Half life in Sprague-Dawley rat at 0.5 mg/kg, iv; assay type: ADME, organism-based; set-up: dose 0.5 mg/kg, route intravenous; settings: in vivo
[29] = Clearance in Sprague-Dawley rat at 0.5 mg/kg, iv; assay type: ADME, organism-based; set-up: dose 0.5 mg/kg, route intravenous; settings: in vivo
[30] = AUC (0 to 24 hrs) in Sprague-Dawley rat at 10 mg/kg, po; assay type: ADME, organism-based; set-up: time < 24 hr, dose 10 mg/kg, route oral; settings: plasma
[31] = Oral bioavailability in Sprague-Dawley rat at 10 mg/kg; assay type: ADME, organism-based; settings: in vivo
[32] = Cmax in Sprague-Dawley rat at 10 mg/kg, po; assay type: ADME, organism-based; set-up: dose 10 mg/kg, route oral; settings: in vivo

| SMILES | IC50 [3] [nM] | IC50 [1] [nM] | IC50 [2] [nM] | further results |
| --- | --- | --- | --- | --- |
| CNc1nccc(Oc2ccc3c(C(=O)Nc4ccc(Cl)cc4)cccc3c2)n1 | 46 | 296 | > 1100 |  |
| COc1cc2nccc(Oc3ccc4c(C(=O)Nc5ccc(Cl)cc5)cccc4c3F)c2cc1OC | 0.3 | 2 | 280 | half-life [4]: 17 h; AUC(0-t) at 24 h [5]: 6010 ng·h/mL; microsomal CLint [6]: 30 µL/min/mg; bioavailability [7]: 50%; clearance [8]: 1.67 mL/min/kg; Vd [9]: 2.4 L/kg; IC50 [10]: > 50000 nM; MRT [11]: 22 h; Cmax [12]: 610 ng/mL; IC50 [13]: > 50000 nM; microsomal CLint [14]: 30 µL/min/mg |
| COc1cc2nccc(Oc3ccc4c(C(=O)NC5CC5)cccc4c3)c2cc1OC |  | 1 |  |  |
| O=C(Nc1ccc(Cl)cc1)c1cccc2cc(Oc3ccncn3)ccc12 | 310 |  |  |  |
| O=C(Nc1ccc(Cl)cc1)c1cccc2cc(Oc3ccnc4ccccc34)ccc12 | 4 | 34 | > 1100 |  |
| COc1cc2nccc(Oc3ccc4c(C(=O)Nc5ccc(Cl)cc5)cccc4c3)c2cc1OC |  |  |  | Activity [15]: Active; Activity [16]: Active; Activity [17]: Dose-dependent effect; Activity [18]: Active; Activity [19]: Dose-dependent effect |
| COc1cc2nccc(Oc3ccc4c(C(=O)NC5CCCC5)cccc4c3)c2cc1OC | 9 | 7 | > 1140 |  |
| COc1cc2nccc(Oc3cc4cccc(C(=O)Nc5ccc(Cl)cc5)c4cn3)c2cc1OC | 23 | 175 | > 1140 |  |
| COc1cc2ncc(F)c(Oc3ccc4c(C(=O)Nc5ccc(Cl)cc5)cccc4c3)c2cc1OC | 20 | 69 | > 1100 |  |
| COc1cc2nccc(Oc3ccc4c(C(=O)Nc5nccs5)cccc4c3)c2cc1OC |  | 2 | 605 |  |
| COc1cc2nccc(Oc3ccc4c(C(=O)Nc5ccc(Cl)cc5)cccc4c3)c2cc1C(N)=O | 0.2 | 3 | 380 |  |
| CNc1cc(Oc2ccc3c(C(=O)Nc4ccc(Cl)cc4)cccc3c2)ncn1 | 20 | 106 | > 1100 |  |
| COc1cc2nccc(Oc3ccc4c(C(=O)Nc5cc(C(C)(C)C)on5)cccc4c3)c2cc1OC | 0.8 | 68 | 190 |  |
| COc1ccc2c(Oc3ccc4c(C(=O)Nc5ccc(Cl)cc5)cccc4c3)ccnc2c1 | 1 | 8 | > 1100 |  |
| COc1cc2nccc(Oc3ccc4c(C(=O)Nc5cc(C)no5)cccc4c3)c2cc1OC | 1 | 7 | > 1140 | Vd [26]: 2.7 L/kg; microsomal CLint [6]: 40 µL/min/mg; MRT [27]: 2.1 h; IC50 [10]: 40000 nM; half-life [28]: 2.4 h; clearance [29]: 21.7 mL/min/kg; IC50 [13]: > 50000 nM; microsomal CLint [14]: 40 µL/min/mg |
| COc1cc2nccc(Nc3ccc4c(C(=O)Nc5ccc(Cl)cc5)cccc4c3)c2cc1OC | 8 | 14 | 115 |  |
| COc1cc2nccc(Oc3ccc4c(C(=O)NC5(C)CC5)cccc4c3)c2cc1OC | 15 |  |  |  |
| COc1cc2nccc(Oc3ccc4c(C(=O)NC5CCC5)cccc4c3)c2cc1OC | 3 | 7 | > 1140 |  |
| CNC(=O)c1cc(Oc2ccc3c(C(=O)Nc4ccc(Cl)cc4)cccc3c2)ccn1 | 3 | 210 | > 1100 |  |
| CNc1cc(Oc2ccc3c(C(=O)Nc4ccc(Cl)cc4)cccc3c2)ccn1 | 7 | 140 | > 1100 |  |
| O=C(Nc1ccc(Cl)cc1)c1cccc2cc(Oc3ncnc4[nH]ccc34)ccc12 | 28 | 37 | > 1140 |  |
| COc1cc2nccc(N(C)c3ccc4c(C(=O)Nc5ccc(Cl)cc5)cccc4c3)c2cc1OC | > 1400 |  |  |  |
| COc1cc2nccc(Oc3ccc4c(C(=O)NC(C)C)cccc4c3)c2cc1OC | 5 | 4 | > 1140 |  |
| O=C(Nc1ccc(Cl)cc1)c1cccc2cc(Oc3ccncc3)ccc12 | 18 | 220 | > 1100 |  |
| COc1cc2nccc(Oc3ccc4c(C(=O)Nc5ccc(Cl)cc5)ccnc4c3)c2cc1OC | 22 | 10 | 88 |  |
| COc1cc2nccc(Oc3ccc4c(C(=O)Nc5cc(C)on5)cccc4c3)c2cc1OC | 0.6 | 6 | 250 |  |
| CCCNC(=O)c1cccc2cc(Oc3ccnc4cc(OC)c(OC)cc34)ccc12 | 1.3 | 7 | > 1140 |  |

Further lines, with some results ahead:

| IC50 [3] [nM] | SMILES | IC50 [1] [nM] | IC50 [2] [nM] | further results |
| --- | --- | --- | --- | --- |
| 0.5 | COc1cc2nccc(Oc3ccc4c(C(=O)Nc5ccc(C(F)(F)F)cc5)cccc4c3)c2cc1OC | 16 | 228 |  |
| 0.2 | COc1cc2nccc(Oc3ccc4c(C(=O)Nc5ccon5)cccc4c3)c2cc1OC |  |  |  |
| 0.5 | COc1cc2nccc(Oc3ccc4c(C(=O)Nc5ccc(C)cc5)cccc4c3)c2cc1OC | 2 | 548 |  |
| 1 | COc1cc2nccc(Oc3ccc4c(C(=O)Nc5ccc(F)cc5)cccc4c3)c2cc1OC | 2 | 305 |  |
| 0.3 | COc1cc2nccc(Oc3ccc4c(C(=O)Nc5cc(Cl)cc(Cl)c5)cccc4c3)c2cc1OC | 28 | 742 |  |
| 0.8 | COc1cc2nccc(Oc3ccc4c(C(=O)Nc5ccccn5)cccc4c3)c2cc1OC | 2 | 286 | clearance [20]: 6.67 mL/min/kg; microsomal CLint [6]: 80 µL/min/mg; bioavailability [7]: 45%; AUC(0-t) at 24 h [21]: 1240 ng·h/mL; MRT [22]: 7.8 h; half-life [23]: 6.1 h; IC50 [10]: 13000 nM; Cmax [24]: 200 ng/mL; IC50 [13]: > 50000 nM; Vd [25]: 3.1 L/kg; microsomal CLint [14]: 90 µL/min/mg |
| 0.6 | COc1cc2nccc(Oc3ccc4c(C(=O)Nc5cccc(F)c5)cccc4c3)c2cc1OC | 3 |  |  |
| 2 | COc1cc2nccc(Oc3ccc4c(C(=O)Nc5ccc(Cl)cc5Cl)cccc4c3)c2cc1OC | 14 | > 1140 |  |
| 0.5 | COc1cc2nccc(Oc3ccc4c(C(=O)Nc5cccc(C(F)(F)F)c5)cccc4c3)c2cc1OC | 34 | 205 |  |
| 0.7 | COc1cc2nccc(Oc3ccc4c(C(=O)Nc5ccc(C(C)(C)C)cc5)cccc4c3)c2cc1OC | 63 | 944 |  |
| 1 | COc1cc2nccc(Oc3ccc4c(C(=O)Nc5ccc(Cl)c(C(F)(F)F)c5)cccc4c3)c2cc1OC | 247 | 228 |  |
| 2 | COc1cc2nccc(Oc3ccc4c(C(=O)Nc5ccncc5)cccc4c3)c2cc1OC | 2 | > 1140 | AUC(0-t) at 24 h [30]: 11000 ng·h/mL; bioavailability [31]: 62%; clearance [20]: 10 mL/min/kg; microsomal CLint [6]: 30 µL/min/mg; MRT [22]: 2.5 h; half-life [23]: 1.8 h; IC50 [10]: 100 nM; Cmax [32]: 1690 ng/mL; IC50 [13]: 700 nM; Vd [25]: 1.4 L/kg; microsomal CLint [14]: 80 µL/min/mg |
| 0.3 | COc1cc2nccc(Oc3ccc4c(C(=O)Nc5cccc(Cl)c5)cccc4c3)c2cc1OC | 5.1 |  |  |
| 0.8 | COc1cc2nccc(Oc3ccc4c(C(=O)Nc5cccnc5)cccc4c3)c2cc1OC | 2 | 1100 | AUC(0-t) at 24 h [30]: 27100 ng·h/mL; bioavailability [31]: 100%; clearance [20]: 15 mL/min/kg; microsomal CLint [6]: 90 µL/min/mg; MRT [22]: 1.4 h; half-life [23]: 1.1 h; IC50 [10]: 2000 nM; Cmax [32]: 5710 ng/mL; IC50 [13]: 17000 nM; Vd [25]: 1.3 L/kg; microsomal CLint [14]: 90 µL/min/mg |
| 2 | COc1cc2nccc(Oc3ccc4c(C(=O)Nc5ccccc5F)cccc4c3)c2cc1OC | 7 | > 1140 |  |
| 0.2 | COc1cc2nccc(Oc3ccc4c(C(=O)Nc5ccccc5)cccc4c3)c2cc1OC | 0.8 | 577 |  |
